Measurements taken from paper PMC8841757, “Direct Inhibition of GSDMD by PEITC Reduces Hepatocyte Pyroptosis and Alleviates Acute Liver Injury in Mice” (Frontiers in Immunology, 2022).

Assays:
human GSDMD WT-EGFP [1] = target: T1, human GSDMD WT-EGFP (Homo sapiens, UniProt P57764); assay: cellular thermal shift assay (CETSA), western blot; type: cell-based; conditions: transfected HEK293T cells, 2 h
T1 construct: GSDMD WT fused to EGFP, transiently expressed in HEK293T cells, cell lysate (MST) or cells (CETSA)
T1 sequence (P57764 1-484): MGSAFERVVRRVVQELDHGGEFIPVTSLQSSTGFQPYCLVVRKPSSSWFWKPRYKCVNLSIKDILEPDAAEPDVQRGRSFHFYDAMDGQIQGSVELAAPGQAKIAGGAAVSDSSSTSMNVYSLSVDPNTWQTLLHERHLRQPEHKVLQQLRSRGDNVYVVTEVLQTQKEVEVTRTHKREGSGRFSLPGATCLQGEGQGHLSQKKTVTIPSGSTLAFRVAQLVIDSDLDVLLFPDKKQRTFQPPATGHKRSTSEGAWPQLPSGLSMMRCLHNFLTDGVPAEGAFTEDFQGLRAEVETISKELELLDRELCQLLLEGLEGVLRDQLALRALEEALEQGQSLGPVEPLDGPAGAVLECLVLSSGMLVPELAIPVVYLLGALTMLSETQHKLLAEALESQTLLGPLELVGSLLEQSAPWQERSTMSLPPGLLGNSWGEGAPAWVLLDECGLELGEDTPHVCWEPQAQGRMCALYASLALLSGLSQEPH

mouse GSDMD WT-EGFP = target: T2, mouse GSDMD WT-EGFP (Mus musculus, UniProt Q9D8T2); assay: microscale thermophoresis in cell lysate; type: biochemical
T2 construct: GSDMD WT fused to EGFP, transiently expressed in AML12 cells, cell lysate (MST); CETSA in AML12 cells with no transfection stated
T2 sequence (Q9D8T2 1-487): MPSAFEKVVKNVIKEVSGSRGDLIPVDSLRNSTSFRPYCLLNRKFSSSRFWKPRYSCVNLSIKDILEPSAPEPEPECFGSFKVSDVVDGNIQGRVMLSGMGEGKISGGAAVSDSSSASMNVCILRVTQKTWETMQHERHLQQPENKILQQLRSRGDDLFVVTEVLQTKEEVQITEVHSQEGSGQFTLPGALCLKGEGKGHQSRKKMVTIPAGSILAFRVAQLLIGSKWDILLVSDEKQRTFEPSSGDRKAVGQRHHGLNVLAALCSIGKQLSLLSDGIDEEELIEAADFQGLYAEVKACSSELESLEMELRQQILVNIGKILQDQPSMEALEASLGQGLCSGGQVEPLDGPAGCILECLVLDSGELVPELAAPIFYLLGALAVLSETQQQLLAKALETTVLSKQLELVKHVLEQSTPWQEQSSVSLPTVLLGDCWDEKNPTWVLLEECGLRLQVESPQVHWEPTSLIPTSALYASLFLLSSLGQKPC

human GSDMD WT-EGFP [2] = target: T1, human GSDMD WT-EGFP; assay: microscale thermophoresis in cell lysate; type: biochemical

Structure (SMILES)	thermal stability (CETSA) (human GSDMD WT-EGFP [1]; 3 μM PEITC)	Kd (mouse GSDMD WT-EGFP) [nM]	Kd (human GSDMD WT-EGFP [2]) [nM]	thermal stability (CETSA) (human GSDMD WT-EGFP [1]; 3 μM NSA)
S=C=NCCc1ccccc1 [PEITC]	PEITC reduced the thermal stability of human WT-GSDMD	308	230	–
COc1nccnc1NS(=O)(=O)c1ccc(NC(=O)/C=C/c2ccc([N+](=O)[O-])s2)cc1 [NSA]	–	–	11200	NSA enhanced the thermal stability of human WT-GSDMD
